Entries after “also recorded” stand apart in the source; their conditions may differ.
Legend:
Format in all cases: in vivo
strawberry fruit = experiment: CAD analogs: ability to hasten strawberry fruit ripening; settings: 50 μM in 0.1% TRITON-X 100, applied at the same timing as CAD; compared with CAD
Description: Chemicals with similarity to CAD were tested for their ability to hasten fruit ripening.
To the inventors' knowledge, no chemical closely related to CAD is currently commercially available. A few analogs with 88-90% similarity to CAD were found in the ChemBridge database used in Example 1.
This compound has 90% similarity to CAD.

[1] = system: strawberries on the plant; experiment: Effect of CAD injection on strawberry fruit ripening; settings: for strawberry appearance (colour), FIG. 4A: 8 DAT; for strawberry appearance (colour), FIG. 4A / strawberry appearance (colour), FIG. 4B / strawberry appearance (colour), FIG. 4C / strawberry appearance (colour), FIG. 4D / strawberry appearance (colour), FIG. 4E / strawberry appearance (colour), FIG. 4F: 7 day old fruit, 10 μM CAD or 200 μM ABA in 0.1% TRITON-X100, injected; for strawberry appearance (colour), FIG. 4B: 9 DAT; for strawberry appearance (colour), FIG. 4C: 10 DAT; for strawberry appearance (colour), FIG. 4D: 11 DAT; for strawberry appearance (colour), FIG. 4E: 12 DAT; for strawberry appearance (colour), FIG. 4F: 13 DAT
Description: While still on the plant, strawberries were injected with either 10 μM CAD in 0.1% TRITON-X 100 surfactant; 200 μM ABA in 0.1% TRITON-X 100 surfactant; or 0.1% TRITON-X 100 surfactant. The strawberries were allowed to remain on the plant, and removed and photographed at 8 DAT, 9 DAT, 10 DAT, 11 DAT, 12 DAT, and 13 DAT. FIG. 4A to FIG. 4F depict images of strawberries treated with either 10 μM CAD in 0.1% TRITON-X 100 surfactant; 200 μM ABA in 0.1% TRITON-X 100 surfactant; or 0.1% TRITON-X 100 surfactant alone (mock); or no treatment.

[2] = system: Cherry tomato fruits at mature green stage; experiment: Treatment of cherry tomatoes by injection: fruit ripening; settings: for cherry tomato appearance (colour), FIG. 3B / FIG. 3D: 6 DAT, injected with 10 μM CAD or 200 μM ABA in 0.1% TRITON-X100; for cherry tomato ripening stage: six days after treatment, injected with 50 μM CAD or 200 μM ABA in 0.1% TRITON X-100
Description: Cherry tomato fruits at mature green stage were purchased from Butler's Orchard (Germantown, Maryland, USA). Each fruit was injected with either 50 μM CAD in 0.1% TRITON X-100 surfactant; 200 μM ABA in 0.1% TRITON X-100 surfactant; or buffer alone (0.1% TRITON X-100 surfactant). […] FIG. 3A and FIG. 3B show images of cherry tomatoes injected with 10 μM CAD. FIG. 3C and FIG. 3D show images of cherry tomatoes injected with 200 μM ABA. FIG. 3E and FIG. 3F show images of cherry tomatoes injected with buffer alone. FIG. 3G and FIG. 3H show images of untreated tomatoes. FIG. 3A; FIG. 3C; FIG. 3E; and FIG. 3G show images taken the day of treatment. FIG. 3B; FIG. 3D; […]; and FIG. 3H show images taken 6 DAT.

[3] = system: Strawberry fruit (Fragaria x ananassa CV. Albion); experiment: Treatment of strawberry fruit by dipping: fruit ripening; settings: for strawberry fruit ripening compared to mock-treated strawberries: 10 μM CAD or 1 mM ABA in 0.1% TRITON X-100, dipped 20 seconds eight days after pollination; for strawberry appearance (colour), FIG. 2A: 7 DAT; for strawberry appearance (colour), FIG. 2A / strawberry appearance (colour), FIG. 2B / strawberry appearance (colour), FIG. 2C / strawberry appearance (colour), FIG. 2D / strawberry appearance (colour), FIG. 2E / strawberry appearance (colour), FIG. 2F: 8 day old fruit, 10 μM CAD or 1 mM ABA in 0.1% TRITON-X100; for strawberry appearance (colour), FIG. 2B: 8 DAT; for strawberry appearance (colour), FIG. 2C: 9 DAT; for strawberry appearance (colour), FIG. 2D: 10 DAT; for strawberry appearance (colour), FIG. 2E: 11 DAT; for strawberry appearance (colour), FIG. 2F: 12 DAT
Description: Strawberry plants (Fragaria x ananassa CV. Albion) were grown in a greenhouse at 28° C. and 14-hour light/10-hour dark conditions. […] Fruits were allowed to continue growing on the plants. FIG. 1 depicts images of strawberry fruit development under standard conditions.
FIG. 2A to FIG. 2F depict images of strawberries treated with either 10 μM CAD in 0.1% TRITON X-100 surfactant; 1 mM ABA in 0.1% TRITON X-100 surfactant; or buffer (0.1% TRITON X-100 surfactant) without chemical (mock-treated). […] The CAD dosage was lower than that of ABA (10 μM vs. 1 mM), and CAD stimulated fruit ripening faster than did ABA. […] In contrast, ABA-treated fruit started to turn red 9 DAT, and reached full red 11 DAT.

[4] = system: Strawberry seeds (Fragaria x ananassa CV. Albion); experiment: Chemical library screening for delaying strawberry seed germination; settings: about 5 μM chemical in 0.1% TRITON X-100; strawberry seeds in 96 well plates, 25° C., vs non-treated or mock-treated seeds
Description: A chemical library containing 10,000 small compounds (˜300 Dalton) was purchased from ChemBridge Co (San Diego, California, USA). Strawberry seeds (Fragaria x ananassa CV. Albion) were purchased from Johnny's Seeds (Fairfield, Maine, USA). Five to six seeds were sterilized with 70% ethanol and added to each well of 96 well ELISA plates containing about 5 μM chemical 0.1% TRITON X-100 surfactant (polyethylene glycol tert-octylphenyl ether). One mM abscisic acid (ABA), a hormone that inhibits seed germination, and gibberellic acid (GA3), a hormone that promotes seed germination, were used as controls. Each experiment was conducted in triplicate. Plates were kept in a growth chamber at 25° C. under dark, and a 14 hour light/10 hour dark cycle was added after seed germination was observed.

[5] = 10 μM CAD or 1 mM ABA in 0.1% TRITON X-100, dipped eight days after pollination, days after treatment

CCc1cccc(C)c1NC(=O)c1ccn(CC)n1 [1-ethyl-N-(2-ethyl-6-methylphenyl)-1H pyrazole-3-carboxamide]
effect on strawberry fruit ripening (strawberry fruit): no obvious effect on fruit ripening

CCn1cc(Br)c(C(=O)Nc2ccccc2C(C)(C)C)n1 [4-bromo-N-(2-tert-butylphenyl)-1-ethyl-1H-pyrazole-3-carboxamide]
effect on strawberry fruit ripening (strawberry fruit): a lower effect on fruit ripening than CAD

CC1=CC(=O)CC(C)(C)[C@@]1(O)/C=C/C(C)=C\C(=O)O [ABA, abscisic acid, reference compound]
strawberry appearance (colour), FIG. 4A [1]: white or greenish white | strawberry appearance (colour), FIG. 4B [1]: with some pink | strawberry appearance (colour), FIG. 4C [1]: pink/red | strawberry appearance (colour), FIG. 4D [1]: reddish | strawberry appearance (colour), FIG. 4E [1]: red | strawberry appearance (colour), FIG. 4F [1]: red with some white at the top | cherry tomato appearance (colour), FIG. 3B / FIG. 3D [2]: red | cherry tomato ripening stage [2]: fully ripen (red stage) | strawberry fruit ripening compared to mock-treated strawberries [3]: stimulated strawberry fruit ripening | fruit began/started to turn red (start of ripening) [3, 5]: 9 DAT | fruit reached full red [3, 5]: 11 DAT | strawberry appearance (colour), FIG. 2A [3]: white with a greenish tint | strawberry appearance (colour), FIG. 2B [3]: white | strawberry appearance (colour), FIG. 2C [3]: with more pink | strawberry appearance (colour), FIG. 2D [3]: reddish | strawberry appearance (colour), FIG. 2E [3]: mostly red | strawberry appearance (colour), FIG. 2F [3]: red allover

CCc1cc(Br)ccc1NC(=O)c1ccn(CC)n1 [CAD, N-(4-bromo-2-ethylphenyl)-1-ethyl-1H-pyrazole-3-carboxamide]
strawberry appearance (colour), FIG. 4A [1]: with a pink tint | strawberry appearance (colour), FIG. 4B [1]: mostly light red; also recorded: showed some color | strawberry appearance (colour), FIG. 4C [1]: red and ripe | strawberry appearance (colour), FIG. 4D [1]: red | strawberry appearance (colour), FIG. 4E [1]: bright red | strawberry appearance (colour), FIG. 4F [1]: red allover | ripened before strawberries injected with 200 μM ABA ([1]; strawberries injected with 10 μM CAD in TRITON-X100 14 days after pollination): at least two | cherry tomato appearance (colour), FIG. 3B / FIG. 3D [2]: dark red | cherry tomato ripening compared to mock-treated or untreated cherry tomatoes ([2]; CAD injected in 0.1% TRITON X-100): hastening of cherry tomato ripening; also recorded: promoted fruit ripening of climacteric tomatoes | cherry tomato ripening stage [2]: fully ripen (red stage) | delaying seed germination [4]: can delay seed germination | strawberry fruit ripening compared to mock-treated strawberries [3]: stimulated strawberry fruit ripening | fruit reached full red [3, 5]: 9 DAT | strawberry appearance (colour), FIG. 2A [3]: white have a pink tint | strawberry appearance (colour), FIG. 2B [3]: with pink spots | strawberry appearance (colour), FIG. 2C [3]: mostly red | strawberry appearance (colour), FIG. 2D [3]: red | strawberry appearance (colour), FIG. 2E [3]: red allover | strawberry appearance (colour), FIG. 2F [3]: red allover

CCn1ccc(C(=O)Nc2ccc(Br)cc2)n1 [N-(4-bromophenyl)-1-ethyl-1H-pyrazole-3-carboxamide]
effect on strawberry fruit ripening (strawberry fruit): has an effect on fruit ripening; also recorded: promoted strawberry fruit ripening, although not as effectively as CAD

Source: US12582132B2, “Germination/sprouting and fruit ripening regulators” (The United States of America, as represented by the …, priority 2021, dated 2026)
